# Laboratory results: PubChem BioAssay AID2060909 (Molecular Pharmacology Branch, DTP, NCI, 2025)
# System: 362531-283-R-J2-PDC complex spheroid viability
# Assay: Anticancer human tumor 362531-283-R-J2-PDC patient-derived colon adenocarcinoma cell line growth inhibition [RAS]
# Conditions: for viability, T/C: stronger effect = lower value
# Method in brief: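 Tumour cells grown as complex spheroids with HUVEC endothelial cells and mesenchymal stem cells, treated with RAS pathway inhibitor combinations. Each agent spans half-log steps from near clinical Cmax, or 10 microM where Cmax is unknown.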
# 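Further: spheroids exposed to the agents for 7 days before readout.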
# 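Wherever viability, T/C is given: luminescence viability as percent of DMSO vehicle control wells.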
structure (smiles),measurement,setting,value
CCn1c(-c2cc(N3CCN(C)CC3)cnc2C(C)OC)c2c3cc(ccc31)-c1csc(n1)CC(NC(=O)C1CC1C)C(=O)N1CCCC(N1)C(=O)OCC(C)(C)C2 (centres undefined),"viability, T/C",compound 0.000949 µM,99% [middle of 8 runs]
same,"viability, T/C",compound 0.003 µM,101% [middle of 8 runs]
same,"viability, T/C",compound 0.00949 µM,100% [middle of 8 runs]
same,"viability, T/C",compound 0.03 µM,99.5% [middle of 8 runs]
same,"viability, T/C",compound 0.0949 µM,82.8% [middle of 7 runs]
same,"viability, T/C",compound 0.3 µM,38.5% [middle of 8 runs]
same,IC50,"compound alone, run of 07/09/2024",223 nM [middle of 8 runs]
Cc1nc(N2CCC3(CC2)COC(C)C3N)c(CO)nc1Sc1ccnc(N)c1Cl (centres undefined) + C=CC(=O)N1CCN(c2nc(OCC3CCCN3C)nc3c(F)c(-c4nc(N)cc(C)c4C(F)(F)F)c(Cl)cc23)C(C)C1,IC50,"curve of first compound, second compound 0.00316 µM",> 10 µM
same,IC50,"curve of first compound, second compound 0.01 µM",> 10 µM
same,IC50,"curve of first compound, second compound 0.0316 µM",> 10 µM
same,IC50,"curve of first compound, second compound 0.1 µM",> 10 µM
same,IC50,"curve of first compound, second compound 0.316 µM",> 10 µM
same,IC50,"curve of first compound, second compound 1 µM",> 10 µM
same,"viability, T/C","second compound 0.00316 µM, first compound 0.0316 µM",111%
same,"viability, T/C","second compound 0.00316 µM, first compound 0.1 µM",102%
same,"viability, T/C","second compound 0.00316 µM, first compound 0.316 µM",103%
same,"viability, T/C","second compound 0.00316 µM, first compound 1 µM",94.3%
same,"viability, T/C","second compound 0.00316 µM, first compound 3.16 µM",83.5%
same,"viability, T/C","second compound 0.00316 µM, first compound 10 µM",69.2%
same,"viability, T/C","second compound 0.01 µM, first compound 0.0316 µM",110%
same,"viability, T/C","second compound 0.01 µM, first compound 0.1 µM",101%
same,"viability, T/C","second compound 0.01 µM, first compound 0.316 µM",97.5%
same,"viability, T/C","second compound 0.01 µM, first compound 1 µM",86.3%
same,"viability, T/C","second compound 0.01 µM, first compound 3.16 µM",85.9%
same,"viability, T/C","second compound 0.01 µM, first compound 10 µM",77.5%
same,"viability, T/C","second compound 0.0316 µM, first compound 0.0316 µM",111%
same,"viability, T/C","second compound 0.0316 µM, first compound 0.1 µM",111%
same,"viability, T/C","second compound 0.0316 µM, first compound 0.316 µM",99.3%
same,"viability, T/C","second compound 0.0316 µM, first compound 1 µM",96.8%
same,"viability, T/C","second compound 0.0316 µM, first compound 3.16 µM",81.5%
same,"viability, T/C","second compound 0.0316 µM, first compound 10 µM",73.8%
same,"viability, T/C","second compound 0.1 µM, first compound 0.0316 µM",117%
same,"viability, T/C","second compound 0.1 µM, first compound 0.1 µM",104%
same,"viability, T/C","second compound 0.1 µM, first compound 0.316 µM",98.4%
same,"viability, T/C","second compound 0.1 µM, first compound 1 µM",92.4%
same,"viability, T/C","second compound 0.1 µM, first compound 3.16 µM",82.4%
same,"viability, T/C","second compound 0.1 µM, first compound 10 µM",79.8%
same,"viability, T/C","second compound 0.316 µM, first compound 0.0316 µM",111%
same,"viability, T/C","second compound 0.316 µM, first compound 0.1 µM",101%
same,"viability, T/C","second compound 0.316 µM, first compound 0.316 µM",118%
same,"viability, T/C","second compound 0.316 µM, first compound 1 µM",89.2%
same,"viability, T/C","second compound 0.316 µM, first compound 3.16 µM",88.5%
same,"viability, T/C","second compound 0.316 µM, first compound 10 µM",79.3%
same,"viability, T/C","second compound 1 µM, first compound 0.0316 µM",108%
same,"viability, T/C","second compound 1 µM, first compound 0.1 µM",111%
same,"viability, T/C","second compound 1 µM, first compound 0.316 µM",101%
same,"viability, T/C","second compound 1 µM, first compound 1 µM",86.1%
same,"viability, T/C","second compound 1 µM, first compound 3.16 µM",83.1%
same,"viability, T/C","second compound 1 µM, first compound 10 µM",68%
